Data reported in patent publication US9695155B2, “Herbicidal substituted pyrimidinyloxy benzene compounds” (E. I. DU PONT DE NEMOURS AND COMPANY, priority 2013, dated 2017).

Assays:
Heteranthera limosa = test: Test B flooded paddy test; format: in vivo; conditions: Flood, 250 g ai/ha, 0 to 100 scale where 0 is no effect and 100 is complete control
Procedure, shortened: (§1)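 Post-emergence paddy-water application at the 2-leaf stage, with 3 cm flood kept for the whole test. Response was judged visually relative to controls after 13 to 15 greenhouse days, 0 indicating no effect and 100 complete control.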

pigweed [1] = test: Test A postemergence; format: in vivo, Amaranthus retroflexus
Procedure, shortened: (§2)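 Visual 0–100 rating (100 = complete control) taken about 10 d post-treatment relative to untreated checks. Preemergence: directed soil spray on sown loam/sand pots. Postemergence: seedlings 2–10 cm, 1–2 leaf. Non-phytotoxic solvent formulation with surfactant.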

large (Lg) crabgrass = test: Test C postemergence; format: in vivo, Digitaria sanguinalis
Procedure, shortened: (§3)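 Rated visually on 0–100 (100 = complete control) after 13–15 days under glass. Treatments went onto freshly seeded loam/sand soil or onto emerged plants at the 1- to 4-leaf stage, using a surfactant-containing solvent formulation.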

pigweed [2] = test: Test A preemergence; format: in vivo, Amaranthus retroflexus
Procedure, shortened: as §2

barnyardgrass [3] = test: Test B flooded paddy test; format: in vivo, Echinochloa crus-galli; conditions: Flood, 250 g ai/ha, 0 to 100 scale where 0 is no effect and 100 is complete control
Procedure, shortened: as §1

sedge, umbrella = test: Test B flooded paddy test; format: in vivo, Cyperus difformis; conditions: Flood, 250 g ai/ha, 0 to 100 scale where 0 is no effect and 100 is complete control
Procedure, shortened: as §1

corn = test: Test C postemergence; format: in vivo, Zea mays
Procedure, shortened: as §3

wheat, winter = test: Test C postemergence; format: in vivo, Triticum aestivum
Procedure, shortened: as §3

oilseed rape = test: Test C postemergence; format: in vivo, Brassica napus
Procedure, shortened: as §3

barnyardgrass [4] = test: Test C postemergence; format: in vivo, Echinochloa crus-galli
Procedure, shortened: as §3

chickweed = test: Test C postemergence; format: in vivo, Stellaria media
Procedure, shortened: as §3

johnsongrass = test: Test C postemergence; format: in vivo, Sorghum halepense
Procedure, shortened: as §3

waterhemp = test: Test C postemergence; format: in vivo, Amaranthus rudis
Procedure, shortened: as §3

[5] = 31 g ai/ha, postemergence, visual rating, scale 0 to 100 (0 no effect, 100 complete control), 13 to 15 days
[6] = 125 g ai/ha, 0 to 100 scale where 0 is no effect and 100 is complete control
[7] = 16 g ai/ha, postemergence, 0 is no effect, 100 is complete control
[8] = 125 g ai/ha, postemergence, visual rating, scale 0 to 100 (0 no effect, 100 complete control)
[9] = Postemergence, 62 g ai/ha, scale 0 to 100 (0 no effect, 100 complete control)

## N#Cc1cccc(Oc2ncc(Cl)cn2)c1-n1cc(C(F)F)cn1 [Compound 253, 3-(5-chloropyrimidin-2-yl)oxy-2-[4-(difluoromethyl)-1H-pyrazol-1-yl]benzonitrile]
Heteranthera limosa; Heteranthera limosa, read-out: Plant response rating, Ducksalad
  pest or weed control at 250 g/ha: 75%
Pigweed [1]; Amaranthus retroflexus, post-emergence, 31 g ai/ha, 0 to 100 scale, 0 no effect, 100 complete control, read-out: Plant response rating, Pigweed
  pest or weed control at 31 g/ha: 90%
Pigweed [1]; Amaranthus retroflexus, post-emergence, 125 g ai/ha, 0 to 100 scale, 0 no effect, 100 complete control, read-out: Plant response rating, Pigweed
  pest or weed control at 125 g/ha: 100%
Large (Lg) crabgrass; Digitaria sanguinalis, post-emergence, 16 g ai/ha, postemergence, 0 is no effect, 100 is complete control, read-out: Plant response rating (0 to 100), Crabgrass, Large
  pest or weed control at 16 g/ha: 5%
Large (Lg) crabgrass; Digitaria sanguinalis, post-emergence, 31 g ai/ha, postemergence, visual rating, scale 0 to 100 (0 no effect, 100 complete control), 13 to 15 days, read-out: Crabgrass, Large plant response rating
  pest or weed control at 31 g/ha: 5%
Large (Lg) crabgrass; Digitaria sanguinalis, post-emergence, 125 g ai/ha, postemergence, visual rating, scale 0 to 100 (0 no effect, 100 complete control), read-out: Plant response rating, Crabgrass, Large
  pest or weed control at 125 g/ha: 20%
Large (Lg) crabgrass; Digitaria sanguinalis, post-emergence, Postemergence, 62 g ai/ha, scale 0 to 100 (0 no effect, 100 complete control), 13 to 15 days, read-out: Plant response rating, Crabgrass, Large
  pest or weed control at 62 g/ha: 15%
Pigweed [2]; 125 g ai/ha
  Pigweed plant response rating (0 to 100 scale): 100
Pigweed [2]; Amaranthus retroflexus, pre-emergence, 240 h, 31 g ai/ha, 0 to 100 scale where 0 is no effect and 100 is complete control, visual, approximately 10 days, read-out: Plant response rating, Pigweed
  pest or weed control at 31 g/ha: 100%
Barnyardgrass [3]; Echinochloa crus-galli, read-out: Plant response rating, Barnyardgrass
  pest or weed control at 250 g/ha: 40%
sedge, umbrella; Cyperus difformis, read-out: Plant response rating, Sedge, Umbrella
  pest or weed control at 250 g/ha: 85%
corn; Zea mays, post-emergence, 16 g ai/ha, postemergence, 0 is no effect, 100 is complete control, read-out: Plant response rating (0 to 100), Corn
  plant injury at 16 g/ha: 5%
corn; Zea mays, post-emergence, 31 g ai/ha, postemergence, visual rating, scale 0 to 100 (0 no effect, 100 complete control), 13 to 15 days, read-out: Corn plant response rating
  plant injury at 31 g/ha: 5%
corn; Zea mays, post-emergence, 125 g ai/ha, postemergence, visual rating, scale 0 to 100 (0 no effect, 100 complete control)
  Corn plant response rating (crop injury, 0 = no effect, 100 = complete kill) at 125 g/ha: 25%
corn; Zea mays, post-emergence, Postemergence, 62 g ai/ha, scale 0 to 100 (0 no effect, 100 complete control), 13 to 15 days
  Corn plant response rating (crop injury, 0 = no effect, 100 = complete kill) at 62 g/ha: 5%
wheat, winter; [5]
  Wheat plant response rating: 0
wheat, winter; Triticum aestivum, post-emergence, 16 g ai/ha, postemergence, 0 is no effect, 100 is complete control, read-out: Plant response rating (0 to 100), Wheat
  plant injury at 16 g/ha: 0%
wheat, winter; Triticum aestivum, post-emergence, 125 g ai/ha, postemergence, visual rating, scale 0 to 100 (0 no effect, 100 complete control), read-out: Plant response rating, Wheat
  plant injury at 125 g/ha: 0%
wheat, winter; Triticum aestivum, post-emergence, Postemergence, 62 g ai/ha, scale 0 to 100 (0 no effect, 100 complete control), 13 to 15 days, read-out: Plant response rating, Wheat
  plant injury at 62 g/ha: 0%
Oilseed rape; [5]
  Oilseed Rape plant response rating: 60
Oilseed rape; Brassica napus, post-emergence, 16 g ai/ha, postemergence, 0 is no effect, 100 is complete control, read-out: Plant response rating (0 to 100), Oilseed Rape
  plant injury at 16 g/ha: 5%
Oilseed rape; Brassica napus, post-emergence, 125 g ai/ha, postemergence, visual rating, scale 0 to 100 (0 no effect, 100 complete control), read-out: Plant response rating, Oilseed Rape
  plant injury at 125 g/ha: 80%
Oilseed rape; Brassica napus, post-emergence, Postemergence, 62 g ai/ha, scale 0 to 100 (0 no effect, 100 complete control), 13 to 15 days, read-out: Plant response rating, Oilseed Rape
  plant injury at 62 g/ha: 10%
Barnyardgrass [4]; Echinochloa crus-galli, post-emergence, 16 g ai/ha, postemergence, 0 is no effect, 100 is complete control, read-out: Plant response rating (0 to 100), Barnyardgrass
  pest or weed control at 16 g/ha: 5%
Barnyardgrass [4]; Echinochloa crus-galli, post-emergence, 31 g ai/ha, postemergence, visual rating, scale 0 to 100 (0 no effect, 100 complete control), 13 to 15 days, read-out: Barnyardgrass plant response rating
  pest or weed control at 31 g/ha: 5%
Barnyardgrass [4]; Echinochloa crus-galli, post-emergence, 125 g ai/ha, postemergence, visual rating, scale 0 to 100 (0 no effect, 100 complete control), read-out: Plant response rating, Barnyardgrass
  pest or weed control at 125 g/ha: 20%
Barnyardgrass [4]; Echinochloa crus-galli, post-emergence, Postemergence, 62 g ai/ha, scale 0 to 100 (0 no effect, 100 complete control), read-out: Plant response rating, Barnyardgrass
  pest or weed control at 62 g/ha: 10%
chickweed; Stellaria media, post-emergence, 16 g ai/ha, postemergence, 0 is no effect, 100 is complete control, read-out: Plant response rating (0 to 100), Chickweed
  pest or weed control at 16 g/ha: 60%
chickweed; Stellaria media, post-emergence, 31 g ai/ha, postemergence, visual rating, scale 0 to 100 (0 no effect, 100 complete control), 13 to 15 days, read-out: Chickweed plant response rating
  pest or weed control at 31 g/ha: 70%
chickweed; Stellaria media, post-emergence, 125 g ai/ha, postemergence, visual rating, scale 0 to 100 (0 no effect, 100 complete control), read-out: Plant response rating, Chickweed
  pest or weed control at 125 g/ha: 90%
chickweed; Stellaria media, post-emergence, Postemergence, 62 g ai/ha, scale 0 to 100 (0 no effect, 100 complete control), 13 to 15 days, read-out: Plant response rating, Chickweed
  pest or weed control at 62 g/ha: 90%
johnsongrass; [5]
  Johnsongrass plant response rating: 5
johnsongrass; Sorghum halepense, post-emergence, 16 g ai/ha, postemergence, 0 is no effect, 100 is complete control, read-out: Plant response rating (0 to 100), Johnsongrass
  pest or weed control at 16 g/ha: 0%
johnsongrass; Sorghum halepense, post-emergence, 125 g ai/ha, postemergence, visual rating, scale 0 to 100 (0 no effect, 100 complete control), read-out: Plant response rating, Johnsongrass
  pest or weed control at 125 g/ha: 10%
johnsongrass; Sorghum halepense, post-emergence, Postemergence, 62 g ai/ha, scale 0 to 100 (0 no effect, 100 complete control), 13 to 15 days, read-out: Plant response rating, Johnsongrass
  pest or weed control at 62 g/ha: 5%
waterhemp; [5]
  Waterhemp plant response rating: 75
waterhemp; Amaranthus tuberculatus, post-emergence, 16 g ai/ha, postemergence, 0 is no effect, 100 is complete control, read-out: Plant response rating (0 to 100), Waterhemp
  pest or weed control at 16 g/ha: 75%
waterhemp; Amaranthus tuberculatus, post-emergence, 125 g ai/ha, postemergence, visual rating, scale 0 to 100 (0 no effect, 100 complete control), read-out: Plant response rating, Waterhemp
  pest or weed control at 125 g/ha: 85%
waterhemp; Amaranthus tuberculatus, post-emergence, Postemergence, 62 g ai/ha, scale 0 to 100 (0 no effect, 100 complete control), 13 to 15 days, read-out: Plant response rating, Waterhemp
  pest or weed control at 62 g/ha: 80%

## N#Cc1cnn(-c2c(Br)cccc2Oc2ncc(Cl)cn2)c1 [Compound 140]
Heteranthera limosa
  Plant response rating, Ducksalad: 80
Pigweed [1]; 31 g ai/ha, 0 to 100 scale, 0 no effect, 100 complete control
  Plant response rating, Pigweed: 90
Pigweed [1]; [6]
  Pigweed plant response rating: 100
Large (Lg) crabgrass; [7]
  Plant response rating (0 to 100), Crabgrass, Large: 10
Large (Lg) crabgrass; [8]
  Plant response rating, Crabgrass, Large: 20
Large (Lg) crabgrass; [9]
  Plant response rating, Crabgrass, Large: 15
Pigweed [2]; 31 g ai/ha, 0 to 100 scale where 0 is no effect and 100 is complete control, visual, approximately 10 days
  Plant response rating, Pigweed: 90
Pigweed [2]; [6]
  Plant response rating, Pigweed: 100
Barnyardgrass [3]
  Plant response rating, Barnyardgrass: 20
sedge, umbrella
  Plant response rating, Sedge, Umbrella: 80
corn; [7]
  Plant response rating (0 to 100), Corn: 0
corn; [8]
  Plant response rating, Corn: 10
corn; [9]
  Plant response rating, Corn: 10
wheat, winter; [7]
  Plant response rating (0 to 100), Wheat: 0
wheat, winter; [8]
  Plant response rating, Wheat: 10
wheat, winter; [9]
  Plant response rating, Wheat: 0
Oilseed rape; [7]
  Plant response rating (0 to 100), Oilseed Rape: 5
Oilseed rape; [8]
  Plant response rating, Oilseed Rape: 50
Oilseed rape; [9]
  Plant response rating, Oilseed Rape: 50
Barnyardgrass [4]; [7]
  Plant response rating (0 to 100), Barnyardgrass: 5
Barnyardgrass [4]; [8]
  Plant response rating, Barnyardgrass: 10
Barnyardgrass [4]; Postemergence, 31 g ai/ha, scale 0 to 100 (0 no effect, 100 complete control), 13 to 15 days
  Plant response rating, Barnyardgrass: 10
Barnyardgrass [4]; [9]
  Plant response rating, Barnyardgrass: 10
chickweed; [7]
  Plant response rating (0 to 100), Chickweed: 30
chickweed; [8]
  Plant response rating, Chickweed: 70
chickweed; [9]
  Plant response rating, Chickweed: 45
johnsongrass; [7]
  Plant response rating (0 to 100), Johnsongrass: 0
johnsongrass; [8]
  Plant response rating, Johnsongrass: 25
johnsongrass; [9]
  Plant response rating, Johnsongrass: 5
waterhemp; [7]
  Plant response rating (0 to 100), Waterhemp: 75
waterhemp; [8]
  Plant response rating, Waterhemp: 85
waterhemp; [9]
  Plant response rating, Waterhemp: 80
